pIC50: −log10 of the molar value.
Experiments:
PIM1 (human) [1] = target: PIM1 (human) (UniProt P11309); experiment: SelectScreen, TR FRET
PIM2 (human) [2] = target: PIM2 (human) (UniProt Q9P1W9); experiment: SelectScreen, TR FRET
MINK1 (human) = MINK1 (human) (UniProt Q8N4C8); experiment: KINOMEscan competition binding; conditions: compound 10.0 µM
DYRK1B (human) = DYRK1B (human) (UniProt Q9Y463); experiment: KINOMEscan competition binding; conditions: compound 10.0 µM
CDK16 (human) = CDK16 (human) (UniProt Q00536); experiment: KINOMEscan competition binding; conditions: compound 10.0 µM
MAPK12 (human) = MAPK12 (human) (UniProt P53778); experiment: KINOMEscan competition binding; conditions: compound 10.0 µM
CSNK2A2 (human) = CSNK2A2 (human) (UniProt P19784); experiment: KINOMEscan competition binding; conditions: compound 10.0 µM
PLK4 (human) = PLK4 (human) (UniProt O00444); experiment: KINOMEscan competition binding; conditions: compound 10.0 µM
MAPK15 (human) = MAPK15 (human) (UniProt Q8TD08); experiment: KINOMEscan competition binding; conditions: compound 10.0 µM
PIK3CG (human) = PIK3CG (human) (UniProt P48736); experiment: KINOMEscan competition binding; conditions: compound 10.0 µM
TGFBR2 (human) = TGFBR2 (human) (UniProt P37173); experiment: KINOMEscan competition binding; conditions: compound 10.0 µM
HIPK1 (human) = HIPK1 (human) (UniProt Q86Z02); experiment: KINOMEscan competition binding; conditions: compound 10.0 µM
ACVR2A (human) = ACVR2A (human) (UniProt P27037); experiment: KINOMEscan competition binding; conditions: compound 10.0 µM
Sequence of ACVR2A (human) (P27037 whole entry, looked up): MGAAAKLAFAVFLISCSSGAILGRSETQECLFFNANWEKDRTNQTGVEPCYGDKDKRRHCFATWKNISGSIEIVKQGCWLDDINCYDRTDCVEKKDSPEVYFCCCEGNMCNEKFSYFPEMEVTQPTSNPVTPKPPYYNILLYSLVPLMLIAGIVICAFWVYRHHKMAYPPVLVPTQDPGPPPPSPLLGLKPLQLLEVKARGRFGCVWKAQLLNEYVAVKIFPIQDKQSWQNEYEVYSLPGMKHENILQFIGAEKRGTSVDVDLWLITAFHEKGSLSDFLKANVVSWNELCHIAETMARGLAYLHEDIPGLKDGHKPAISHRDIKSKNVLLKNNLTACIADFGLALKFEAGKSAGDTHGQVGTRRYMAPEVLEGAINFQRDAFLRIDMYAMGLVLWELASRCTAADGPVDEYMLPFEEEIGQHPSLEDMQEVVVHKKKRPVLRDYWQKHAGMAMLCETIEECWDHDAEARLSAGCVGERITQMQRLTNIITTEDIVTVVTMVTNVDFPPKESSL

GSK3A (human) = GSK3A (human) (UniProt P49840); experiment: KINOMEscan competition binding; conditions: compound 10.0 µM
GAK (human) = GAK (human) (UniProt O14976); experiment: KINOMEscan competition binding; conditions: compound 10.0 µM
[3] = target: TYK2 JH2 pseudokinase (human) (UniProt P29597); experiment: KINOMEscan competition binding; conditions: compound 10.0 µM
ACVR2B (human) = ACVR2B (human) (UniProt Q13705); experiment: KINOMEscan competition binding; conditions: compound 10.0 µM
MAP2K3 (human) = MAP2K3 (human) (UniProt P46734); experiment: KINOMEscan competition binding; conditions: compound 10.0 µM
Sequence of MAP2K3 (human) (P46734 whole entry, looked up): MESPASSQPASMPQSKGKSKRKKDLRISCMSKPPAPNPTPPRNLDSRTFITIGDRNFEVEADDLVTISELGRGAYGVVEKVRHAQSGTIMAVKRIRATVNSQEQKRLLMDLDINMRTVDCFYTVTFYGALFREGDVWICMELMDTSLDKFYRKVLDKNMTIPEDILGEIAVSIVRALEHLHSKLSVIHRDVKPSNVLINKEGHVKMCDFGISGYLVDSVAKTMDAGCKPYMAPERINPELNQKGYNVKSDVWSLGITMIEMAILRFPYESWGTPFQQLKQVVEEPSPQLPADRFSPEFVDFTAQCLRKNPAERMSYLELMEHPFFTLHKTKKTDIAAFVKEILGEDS

PIM1 (human) [4] = target: PIM1 (human) (UniProt P11309); experiment: KINOMEscan competition binding; conditions: compound 10.0 µM
TAOK1 (human) = TAOK1 (human) (UniProt Q7L7X3); experiment: KINOMEscan competition binding; conditions: compound 10.0 µM
CDK7 (human) = CDK7 (human) (UniProt P50613); experiment: KINOMEscan competition binding; conditions: compound 10.0 µM
TAOK3 (human) = TAOK3 (human) (UniProt Q9H2K8); experiment: KINOMEscan competition binding; conditions: compound 10.0 µM
MKNK2 (human) = MKNK2 (human) (UniProt Q9HBH9); experiment: KINOMEscan competition binding; conditions: compound 10.0 µM
PIM2 (human) [5] = target: PIM2 (human) (UniProt Q9P1W9); experiment: KINOMEscan competition binding; conditions: compound 10.0 µM
RPS6KA4 KD2 (human) = RPS6KA4 KD2 (human) (UniProt O75676); experiment: KINOMEscan competition binding; conditions: compound 10.0 µM
DAPK2 (human) = DAPK2 (human) (UniProt Q9UIK4); experiment: KINOMEscan competition binding; conditions: compound 10.0 µM
Sequence of DAPK2 (human) (Q9UIK4 whole entry, looked up): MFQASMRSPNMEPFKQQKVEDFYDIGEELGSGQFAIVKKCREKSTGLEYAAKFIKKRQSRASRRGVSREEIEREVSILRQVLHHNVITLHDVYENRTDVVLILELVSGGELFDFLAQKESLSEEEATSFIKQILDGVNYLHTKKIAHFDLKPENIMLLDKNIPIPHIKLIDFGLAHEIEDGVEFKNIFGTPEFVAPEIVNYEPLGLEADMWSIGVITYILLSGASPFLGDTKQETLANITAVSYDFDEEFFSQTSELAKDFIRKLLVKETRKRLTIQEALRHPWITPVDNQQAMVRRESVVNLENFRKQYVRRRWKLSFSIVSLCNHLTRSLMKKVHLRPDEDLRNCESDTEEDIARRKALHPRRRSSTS

STK17B (human) = STK17B (human) (UniProt O94768); experiment: KINOMEscan competition binding; conditions: compound 10.0 µM
MYLK (human) = MYLK (human) (UniProt Q15746); experiment: KINOMEscan competition binding; conditions: compound 10.0 µM
Sequence of MYLK (human) (Q15746 whole entry, looked up): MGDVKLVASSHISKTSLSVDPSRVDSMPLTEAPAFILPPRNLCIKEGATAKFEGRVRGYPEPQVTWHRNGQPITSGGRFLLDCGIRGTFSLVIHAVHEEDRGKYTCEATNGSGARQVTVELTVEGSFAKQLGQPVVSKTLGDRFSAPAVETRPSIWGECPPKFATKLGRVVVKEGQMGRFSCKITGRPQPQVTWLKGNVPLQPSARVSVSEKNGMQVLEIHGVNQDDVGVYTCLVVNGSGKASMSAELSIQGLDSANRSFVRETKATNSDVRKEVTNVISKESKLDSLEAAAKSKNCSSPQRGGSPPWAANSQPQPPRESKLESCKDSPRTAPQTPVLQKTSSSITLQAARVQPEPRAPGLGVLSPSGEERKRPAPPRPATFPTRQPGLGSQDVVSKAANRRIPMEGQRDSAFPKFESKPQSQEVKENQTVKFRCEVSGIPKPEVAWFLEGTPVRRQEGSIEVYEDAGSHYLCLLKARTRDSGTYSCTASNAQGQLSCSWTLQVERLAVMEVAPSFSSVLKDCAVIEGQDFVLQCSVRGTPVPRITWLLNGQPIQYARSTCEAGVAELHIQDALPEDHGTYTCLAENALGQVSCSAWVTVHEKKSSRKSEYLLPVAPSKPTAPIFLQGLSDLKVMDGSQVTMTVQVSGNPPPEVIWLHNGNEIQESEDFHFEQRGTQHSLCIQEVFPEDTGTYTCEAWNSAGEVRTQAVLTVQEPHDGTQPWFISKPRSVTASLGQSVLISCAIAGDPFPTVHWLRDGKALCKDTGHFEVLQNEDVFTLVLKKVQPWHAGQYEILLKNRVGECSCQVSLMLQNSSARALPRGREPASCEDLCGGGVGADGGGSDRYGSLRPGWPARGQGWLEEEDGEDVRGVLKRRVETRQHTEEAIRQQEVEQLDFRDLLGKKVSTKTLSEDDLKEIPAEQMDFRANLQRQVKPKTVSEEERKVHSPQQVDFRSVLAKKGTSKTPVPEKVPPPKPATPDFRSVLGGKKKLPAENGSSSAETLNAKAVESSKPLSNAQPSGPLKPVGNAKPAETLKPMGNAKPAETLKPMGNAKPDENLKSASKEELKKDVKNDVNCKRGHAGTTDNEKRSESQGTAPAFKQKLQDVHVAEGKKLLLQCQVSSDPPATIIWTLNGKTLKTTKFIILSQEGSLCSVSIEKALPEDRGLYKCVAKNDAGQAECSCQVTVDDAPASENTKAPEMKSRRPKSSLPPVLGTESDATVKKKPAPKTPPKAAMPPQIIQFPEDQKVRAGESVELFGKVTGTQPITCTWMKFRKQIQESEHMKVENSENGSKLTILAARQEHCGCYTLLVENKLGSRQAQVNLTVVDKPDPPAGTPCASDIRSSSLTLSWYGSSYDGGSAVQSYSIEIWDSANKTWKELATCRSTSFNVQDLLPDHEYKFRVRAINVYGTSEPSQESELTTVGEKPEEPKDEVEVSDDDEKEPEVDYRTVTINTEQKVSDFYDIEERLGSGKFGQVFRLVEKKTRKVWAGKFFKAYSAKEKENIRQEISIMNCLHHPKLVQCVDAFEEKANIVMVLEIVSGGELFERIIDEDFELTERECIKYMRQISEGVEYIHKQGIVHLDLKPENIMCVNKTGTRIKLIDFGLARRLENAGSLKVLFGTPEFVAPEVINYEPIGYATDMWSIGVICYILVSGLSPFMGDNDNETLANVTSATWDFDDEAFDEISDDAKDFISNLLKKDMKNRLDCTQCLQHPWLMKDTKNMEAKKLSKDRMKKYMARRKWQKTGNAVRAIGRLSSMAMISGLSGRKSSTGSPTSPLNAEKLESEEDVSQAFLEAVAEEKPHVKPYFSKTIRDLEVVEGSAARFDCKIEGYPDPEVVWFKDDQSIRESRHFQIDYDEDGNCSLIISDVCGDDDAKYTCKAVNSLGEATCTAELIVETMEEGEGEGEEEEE

AAK1 (human) = AAK1 (human) (UniProt Q2M2I8); experiment: KINOMEscan competition binding; conditions: compound 10.0 µM
PIM3 (human) = PIM3 (human) (UniProt Q86V86); experiment: KINOMEscan competition binding; conditions: compound 10.0 µM
TTK (human) = TTK (human) (UniProt P33981); experiment: KINOMEscan competition binding; conditions: compound 10.0 µM
Sequence of TTK (human) (P33981 whole entry, looked up): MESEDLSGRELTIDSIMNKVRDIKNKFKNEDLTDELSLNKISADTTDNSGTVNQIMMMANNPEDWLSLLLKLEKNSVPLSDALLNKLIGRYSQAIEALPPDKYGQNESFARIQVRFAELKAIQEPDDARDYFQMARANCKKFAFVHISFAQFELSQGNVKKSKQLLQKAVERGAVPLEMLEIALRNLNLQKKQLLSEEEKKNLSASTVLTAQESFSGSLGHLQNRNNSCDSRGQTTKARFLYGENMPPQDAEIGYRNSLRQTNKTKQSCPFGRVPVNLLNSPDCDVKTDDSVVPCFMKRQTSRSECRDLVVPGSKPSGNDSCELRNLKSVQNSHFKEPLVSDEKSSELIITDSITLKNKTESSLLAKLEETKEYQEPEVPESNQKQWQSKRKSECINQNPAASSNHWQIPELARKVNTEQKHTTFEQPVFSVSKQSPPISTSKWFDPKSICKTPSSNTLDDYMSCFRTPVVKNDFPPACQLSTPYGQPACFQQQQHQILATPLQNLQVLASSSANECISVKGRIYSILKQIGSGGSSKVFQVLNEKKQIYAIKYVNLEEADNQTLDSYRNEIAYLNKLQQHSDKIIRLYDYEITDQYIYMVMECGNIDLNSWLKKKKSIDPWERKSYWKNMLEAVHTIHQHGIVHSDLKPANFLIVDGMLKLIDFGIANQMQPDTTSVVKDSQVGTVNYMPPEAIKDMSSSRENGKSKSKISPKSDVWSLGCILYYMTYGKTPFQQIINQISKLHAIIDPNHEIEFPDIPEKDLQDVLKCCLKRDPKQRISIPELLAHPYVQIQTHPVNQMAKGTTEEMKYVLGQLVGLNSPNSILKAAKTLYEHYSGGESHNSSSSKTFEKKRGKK

MYLK4 (human) = MYLK4 (human) (UniProt Q86YV6); experiment: KINOMEscan competition binding; conditions: compound 10.0 µM
Sequence of MYLK4 (human) (Q86YV6 whole entry, looked up): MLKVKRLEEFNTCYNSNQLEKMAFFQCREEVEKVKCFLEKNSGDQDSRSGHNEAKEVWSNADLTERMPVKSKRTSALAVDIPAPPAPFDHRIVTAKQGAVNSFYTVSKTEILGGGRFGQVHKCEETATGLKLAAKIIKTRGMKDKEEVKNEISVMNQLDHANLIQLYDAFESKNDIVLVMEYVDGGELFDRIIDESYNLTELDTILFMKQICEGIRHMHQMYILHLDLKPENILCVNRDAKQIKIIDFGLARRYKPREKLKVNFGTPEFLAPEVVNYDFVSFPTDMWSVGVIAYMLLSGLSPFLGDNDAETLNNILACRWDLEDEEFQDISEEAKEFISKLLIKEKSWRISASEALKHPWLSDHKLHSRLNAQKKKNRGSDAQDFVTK

STK17A (human) = STK17A (human) (UniProt Q9UEE5); experiment: KINOMEscan competition binding; conditions: compound 10.0 µM
RIOK1 (human) = RIOK1 (human) (UniProt Q9BRS2); experiment: KINOMEscan competition binding; conditions: compound 10.0 µM
DAPK3 (human) = DAPK3 (human) (UniProt O43293); experiment: KINOMEscan competition binding; conditions: compound 10.0 µM
DAPK1 (human) = DAPK1 (human) (UniProt P53355); experiment: KINOMEscan competition binding; conditions: compound 10.0 µM

Sequence of PIM1 (human) (P11309 whole entry, looked up): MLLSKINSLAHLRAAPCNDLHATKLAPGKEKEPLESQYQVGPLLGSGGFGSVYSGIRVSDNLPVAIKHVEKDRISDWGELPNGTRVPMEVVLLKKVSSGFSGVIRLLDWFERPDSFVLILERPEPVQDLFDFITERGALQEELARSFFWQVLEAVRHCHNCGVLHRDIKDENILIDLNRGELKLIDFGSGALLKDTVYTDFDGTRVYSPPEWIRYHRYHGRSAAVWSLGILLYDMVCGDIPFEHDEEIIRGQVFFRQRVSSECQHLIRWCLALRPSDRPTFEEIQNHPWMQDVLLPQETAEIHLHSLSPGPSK
Sequence of PIM2 (human) (Q9P1W9 whole entry, looked up): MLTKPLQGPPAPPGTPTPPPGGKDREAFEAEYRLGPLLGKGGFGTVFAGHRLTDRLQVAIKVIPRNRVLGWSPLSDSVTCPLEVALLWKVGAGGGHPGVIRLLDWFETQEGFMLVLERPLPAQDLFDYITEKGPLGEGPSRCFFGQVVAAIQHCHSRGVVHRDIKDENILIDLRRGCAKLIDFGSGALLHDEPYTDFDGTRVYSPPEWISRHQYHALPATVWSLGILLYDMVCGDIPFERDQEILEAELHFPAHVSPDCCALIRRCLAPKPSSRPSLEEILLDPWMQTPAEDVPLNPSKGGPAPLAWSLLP

pIC50 (PIM1 (human) [1]): 6.69
pIC50 (PIM2 (human) [2]): 6.56
kinase still bound, per cent of control (MINK1 (human)): 30%
kinase still bound, per cent of control (DYRK1B (human)): 24%
kinase still bound, per cent of control (CDK16 (human)): 0.3%
kinase still bound, per cent of control (MAPK12 (human)): 12%
kinase still bound, per cent of control (CSNK2A2 (human)): 28%
kinase still bound, per cent of control (PLK4 (human)): 0.3%
kinase still bound, per cent of control (PIK3CG (human)): 25%
kinase still bound, per cent of control (TGFBR2 (human)): 2.8%
kinase still bound, per cent of control (HIPK1 (human)): 0%
kinase still bound, per cent of control (ACVR2A (human)): 7.5%
kinase still bound, per cent of control (GSK3A (human)): 10%
kinase still bound, per cent of control (GAK (human)): 22%
kinase still bound, per cent of control [3]: 21%
kinase still bound, per cent of control (ACVR2B (human)): 14%
kinase still bound, per cent of control (MAP2K3 (human)): 7.8%
kinase still bound, per cent of control (PIM1 (human) [4]): 2.9%
kinase still bound, per cent of control (TAOK1 (human)): 3%
kinase still bound, per cent of control (CDK7 (human)): 1.3%
kinase still bound, per cent of control (TAOK3 (human)): 16%
kinase still bound, per cent of control (MKNK2 (human)): 33%
kinase still bound, per cent of control (PIM2 (human) [5]): 0.9%
kinase still bound, per cent of control (RPS6KA4 KD2 (human)): 13%
kinase still bound, per cent of control (DAPK2 (human)): 9%
kinase still bound, per cent of control (STK17B (human)): 2.8%
kinase still bound, per cent of control (MYLK (human)): 12%
kinase still bound, per cent of control (AAK1 (human)): 34%
kinase still bound, per cent of control (PIM3 (human)): 5%
kinase still bound, per cent of control (TTK (human)): 23%
kinase still bound, per cent of control (MYLK4 (human)): 8.2%
kinase still bound, per cent of control (STK17A (human)): 0.65%
kinase still bound, per cent of control (RIOK1 (human)): 21%
kinase still bound, per cent of control (DAPK3 (human)): 17%
kinase still bound, per cent of control (DAPK1 (human)): 8.7%
SMILES: CS(=O)(=O)Nc1ccc(-c2ccc(/C=C3\SC(=N)NC3=O)o2)cc1
kinase still bound, per cent of control (MAPK15 (human)): 0.65%
